US10294202B2, “Pyrrolidinones as herbicides” (FMC Corporation, priority 2013, dated 2019)

How the values were obtained:
[1] = system: field violet; experiment: Test D pre-/postemergence herbicide test; type: in vivo, Viola arvensis; details: Preemergence; for Plant response rating, Field Violet: scale 0 to 100 (0 no effect, 100 complete control)
Outline: (§1)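 Test chemicals, formulated in a non-phytotoxic solvent mixture with surfactant, are sprayed preemergence onto seeds in silt loam and postemergence onto plants of 2–18 cm. Plants are held in a controlled growth environment for 7 to 21 days, then rated visually versus controls (0–100).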

[2] = system: oilseed rape; experiment: Test D pre-/postemergence herbicide test; type: in vivo, Brassica napus; details: Preemergence, scale 0 to 100 (0 no effect, 100 complete control)
Outline: as §1

[3] = system: wheat, spring; experiment: Test D pre-/postemergence herbicide test; type: in vivo, Triticum aestivum; details: Preemergence, scale 0 to 100 (0 no effect, 100 complete control)
Outline: as §1

[4] = system: wheat, winter; experiment: Test D pre-/postemergence herbicide test; type: in vivo, Triticum aestivum; details: Preemergence, scale 0 to 100 (0 no effect, 100 complete control)
Outline: as §1

[5] = system: pigweed, palmer; experiment: Test E preemergence herbicide test; type: in vivo, Amaranthus palmeri; parameters: key: 0 = no effect, 100 = complete control
Outline: (§2)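 Planted in silt loam; preemergence spray, non-phytotoxic solvent/surfactant formulation; greenhouse 21 d; visual score 0–100 vs controls.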

[6] = system: ragweed; experiment: Test E preemergence herbicide test; type: in vivo, Ambrosia elatior; parameters: key: 0 = no effect, 100 = complete control
Outline: as §2

[7] = system: barnyardgrass; experiment: Test E preemergence herbicide test; type: in vivo, Echinochloa crus-galli; parameters: key: 0 = no effect, 100 = complete control
Outline: as §2

[8] = system: ryegrass, Italian; experiment: Test E preemergence herbicide test; type: in vivo, Lolium multiflorum; parameters: key: 0 = no effect, 100 = complete control
Outline: as §2

[9] = system: dayflower, VA; experiment: Test E preemergence herbicide test; type: in vivo, Commelina virginica; parameters: key: 0 = no effect, 100 = complete control
Outline: as §2

[10] = system: morningglory; experiment: Test E preemergence herbicide test; type: in vivo, Ipomoea coccinea; parameters: key: 0 = no effect, 100 = complete control
Outline: as §2

[11] = system: beggarticks; experiment: Test E preemergence herbicide test; type: in vivo, Bidens pilosa; parameters: key: 0 = no effect, 100 = complete control
Outline: as §2

O=C1NC[C@H](c2cccc(C(F)(F)F)c2)[C@H]1C(=O)Nc1cccc(F)c1F [Compound 206]
Plant response rating, Field Violet ([1]; 62 g ai/ha): 35
Plant response rating, Field Violet ([1]; 125 g ai/ha): 35
Plant response rating, Field Violet ([1]; 31 g ai/ha): 15
Plant response rating ([1]; 250 g ai/ha, Field Violet, scale 0 to 100): 25
Plant response rating, Oilseed Rape ([2]; 62 g ai/ha): 0
Plant response rating, Oilseed Rape ([2]; 125 g ai/ha): 0
Plant response rating, Oilseed Rape ([2]; 31 g ai/ha): 0
Plant response rating, Oilseed Rape ([2]; 250 g ai/ha): 5
Plant response rating, Wheat, Spring ([3]; 62 g ai/ha): 25
Plant response rating, Wheat, Spring ([3]; 125 g ai/ha): 45
Plant response rating, Wheat, Spring ([3]; 31 g ai/ha): 10
Plant response rating, Wheat, Spring ([3]; 250 g ai/ha): 65
Plant response rating, Wheat, Winter ([4]; 62 g ai/ha): 0
Plant response rating, Wheat, Winter ([4]; 125 g ai/ha): 25
Plant response rating, Wheat, Winter ([4]; 31 g ai/ha): 0
Plant response rating, Wheat, Winter ([4]; 250 g ai/ha): 30
Plant response rating, Pigweed, Palmer ([5]; 31 g ai/ha): 0
Plant response rating, Pigweed, Palmer ([5]; 62 g ai/ha): 0
Plant response rating, Pigweed, Palmer ([5]; 125 g ai/ha): 0
Plant response rating, Pigweed, Palmer ([5]; 250 g ai/ha): 0
Plant response rating, Ragweed ([6]; 31 g ai/ha): 0
Plant response rating, Ragweed ([6]; 62 g ai/ha): 0
Plant response rating, Ragweed ([6]; 125 g ai/ha): 0
Plant response rating, Ragweed ([6]; 250 g ai/ha): 75
Plant response rating, Barnyardgrass ([7]; 31 g ai/ha): 70
Plant response rating, Barnyardgrass ([7]; 62 g ai/ha): 75
Plant response rating, Barnyardgrass ([7]; 125 g ai/ha): 95
Plant response rating, Barnyardgrass ([7]; 250 g ai/ha): 98
Plant response rating, Ryegrass, Italian ([8]; 31 g ai/ha): 0
Plant response rating, Ryegrass, Italian ([8]; 62 g ai/ha): 35
Plant response rating, Ryegrass, Italian ([8]; 125 g ai/ha): 80
Plant response rating, Ryegrass, Italian ([8]; 250 g ai/ha): 65
Plant response rating, Dayflower, VA ([9]; 31 g ai/ha): 0
Plant response rating, Dayflower, VA ([9]; 62 g ai/ha): 0
Plant response rating, Dayflower, VA ([9]; 125 g ai/ha): 0
Plant response rating, Dayflower, VA ([9]; 250 g ai/ha): 20
Plant response rating, Morningglory ([10]; 31 g ai/ha): 0
Plant response rating, Morningglory ([10]; 62 g ai/ha): 0
Plant response rating, Morningglory ([10]; 125 g ai/ha): 0
Plant response rating, Morningglory ([10]; 250 g ai/ha): 0
Plant response rating, Beggarticks ([11]; 31 g ai/ha): 0
Plant response rating, Beggarticks ([11]; 62 g ai/ha): 0
Plant response rating, Beggarticks ([11]; 125 g ai/ha): 0
Plant response rating, Beggarticks ([11]; 250 g ai/ha): 0
